Data from US20150266908A1, “FLAME RETARDANT COMPRISING AROMATIC PHOSPHATE ESTER-BASED COMPOUND, AND METHOD FOR PREPARING SAME” (priority 2012, published 2015).

Test system: CHO cells
Test: Test on toxicity of DPBAP: chromosomal abnormality in CHO cells
Format: cell-based
Experimental: A test on the toxicity of the DPBAP in accordance with the method of the present invention was performed (by the Korea Research Institute of Chemical Technology). After treating the DPBAP to CHO cells, chromosomal abnormality was measured. Consequently, the increasing of the chromosomal abnormality was not observed in all of DPBAP treatment groups regardless of application of metabolic activation system. […] However, in the CHO cells, it was known that the polyploid and endoreduplication can be generally observed due to the over-proliferation, or other causes (Scott et al., 1990).

CCCCNP(=O)(Oc1ccccc1)Oc1ccccc1 [DPBAP, Diphenylbutylaminophosphate] was tested, and the “toxicity (overall conclusion)” value (CHO cells chromosomal abnormality test) was “no toxicity were observed”, the “increasing of the chromosomal abnormality” value (CHO cells, all DPBAP treatment groups, regardless of application of metabolic activation system) was “not observed” and the cells dead (CHO cells, highest concentration of the test material) was “about 50%”. The polyploid and endoreduplication (CHO cells, highest-concentration groups, treated during 24 hours) was “minority of polyploid and endoreduplication was observed”.
